From patent publication US12344620B2, “BRD4 inhibitor compound in solid form and preparation method therefor and use thereof” (CSPC ZHONGQI PHARMACEUTICAL TECHNOLOGY (SHIJIAZHUANG) CO., …, priority 2019, dated 2025)
pIC50: −log10 of the molar value.

How the values were obtained:
[1] = biological target: hERG potassium ion channel (Homo sapiens (Human), UniProt Q12809); test: hERG potassium channel current, automatic patch-clamp QPatch, CHO-hERG cells; assay type: cell-based; conditions: highest test concentration 40 μM
Chain of hERG potassium ion channel (Q12809 whole entry): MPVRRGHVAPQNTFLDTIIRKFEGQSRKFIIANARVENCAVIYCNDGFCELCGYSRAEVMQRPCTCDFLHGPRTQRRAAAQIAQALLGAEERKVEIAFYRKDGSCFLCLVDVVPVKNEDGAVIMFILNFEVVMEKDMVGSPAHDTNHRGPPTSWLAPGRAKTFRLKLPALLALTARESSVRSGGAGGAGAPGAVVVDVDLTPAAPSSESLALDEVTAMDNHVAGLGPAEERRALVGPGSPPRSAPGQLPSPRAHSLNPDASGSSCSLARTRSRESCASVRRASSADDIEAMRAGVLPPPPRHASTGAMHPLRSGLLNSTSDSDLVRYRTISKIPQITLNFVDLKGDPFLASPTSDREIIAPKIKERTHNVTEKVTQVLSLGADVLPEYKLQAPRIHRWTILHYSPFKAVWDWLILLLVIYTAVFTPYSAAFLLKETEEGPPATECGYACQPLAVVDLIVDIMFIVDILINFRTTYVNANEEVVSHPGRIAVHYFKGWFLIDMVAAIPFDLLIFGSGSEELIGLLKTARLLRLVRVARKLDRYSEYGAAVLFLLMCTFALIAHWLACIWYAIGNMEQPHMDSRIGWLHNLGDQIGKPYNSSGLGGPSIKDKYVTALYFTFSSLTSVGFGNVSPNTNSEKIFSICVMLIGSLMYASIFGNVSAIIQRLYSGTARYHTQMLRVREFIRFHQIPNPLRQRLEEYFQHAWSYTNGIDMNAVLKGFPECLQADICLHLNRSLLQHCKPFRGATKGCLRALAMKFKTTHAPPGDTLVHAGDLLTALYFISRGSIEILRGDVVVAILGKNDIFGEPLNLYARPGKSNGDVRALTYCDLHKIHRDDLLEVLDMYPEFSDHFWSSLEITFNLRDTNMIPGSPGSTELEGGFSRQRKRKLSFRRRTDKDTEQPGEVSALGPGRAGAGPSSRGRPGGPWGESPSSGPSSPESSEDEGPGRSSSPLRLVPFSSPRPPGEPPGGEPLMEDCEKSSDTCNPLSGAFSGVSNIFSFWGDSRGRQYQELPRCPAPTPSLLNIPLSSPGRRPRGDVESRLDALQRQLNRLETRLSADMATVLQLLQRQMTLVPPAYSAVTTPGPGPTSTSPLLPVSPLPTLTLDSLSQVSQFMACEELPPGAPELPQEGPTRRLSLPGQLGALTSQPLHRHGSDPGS
Protocol: The effect of the compound of formula (I) on the hERG potassium channel current was investigated by adopting CHO (Chinese Hamster ovary) cell stably expressing the hERG potassium ion channel and using the fully automatic patch-clamp QPatch technology.
CHO-hERG cells were cultured in a 175 cm^2 culture flask. After the cell density increased to 60-80%, the culture medium was removed, the cells were washed once with 7 mL PBS, and then 3 mL Detachin was added for digestion.
After the digestion was complete, 7 mL of culture medium was added for neutralization, and then the mixture was centrifuged. The supernatant was removed, and then 5 mL of culture medium was added for resuspension to ensure that the cell density was 2-5×10^6/mL. […]
The single-cell high-impedance sealing and the whole-cell mode formation process were all automatically completed by the Qpatch instrument. […] The data were recorded for 2 minutes, then extracellular fluid was given, and then the data were recorded for 5 minutes. […] The experimental data were analyzed by XLFit software.

[2] = In vivo pharmacokinetics test in mice; conditions: mouse, plasma, po; female Balb/c mice, intragastric, 3 mg/kg; read-out: Bioavailability F
Protocol: Female Balb/c mice were used as test animals. The compound of formula (I) was administrated intravenously and intragastrically to mice, then the drug concentrations in the plasma at different time points were determined by the LC/MS/MS method. The in vivo pharmacokinetic behavior of the compound of formula (I) in mice was studied, and its pharmacokinetic characteristics were evaluated.
Sixteen healthy adult female Balb/c mice were divided into four groups according to the principle of similar body weight, with four mice in each group. The animals were purchased from Shanghai Lingchang BioTech Co., Ltd. of Shanghai SLAC Laboratory Animal Co., Ltd., and the animal production license number was SCXK (Shanghai) 2013-0018.
An appropriate amount of the sample was taken, 5% final volume of DMSO was added, and then 95% final volume of 20% HP-β-CD was added. The mixture was ultrasonically stirred to obtain a 0.5 mg/mL clear solution. After filtration, it was used for the intravenous administration. […]
The LC/MS/MS method was used to measure the content of the compound to be tested in the plasma after the intravenous and intragastric administration to the mice. The linear range of the method was 2.00-6000 nmol/L; the plasma samples were analyzed after the protein precipitation by acetonitrile treatment.

[3] = tested on: Mouse colon cancer MC38 cells; test: In vivo anti-tumor effect, MC38 mouse colon cancer transplantation tumor model; conditions: 15, 25 and 50 mg/kg PO BID x 20 days
Protocol: • Species: mouse • Strain: C57BL6 mouse • Week-age and weight: 6-7 weeks of age, 16-20 grams of body weight • Sex: Female • Supplier: Shanghai SLAC Laboratory Animal Co., Ltd.
Mouse colon cancer MC38 cells (OBiO Technology (Shanghai) Corp., Ltd.) were cultured in monolayer in vitro, and the culture conditions were DMEM culture medium (Gibco; article number: 12100) with 10% fetal bovine serum at 37° C. in 5% CO2 in an incubator. Conventional digestion treatment with 0.25% pancreatin-EDTA for passage was carried out. When the cells were in the exponential growth phase and the density was 80%-90%, the cells were harvested, counted, and inoculated. […]
Tumor diameter was measured twice a week with vernier calipers. […]
The tumor inhibition effect of the compound was evaluated by TGI (%) or relative tumor proliferation rate T/C (%). […] The relative tumor volume (RTV) was calculated according to the results of the tumor measurement. The calculation equation was RTV=Vt/V0, where V0 was the average tumor volume measured at the grouping and administration (i.e. D0), and Vt was the average tumor volume at the time of a certain measurement. […]
Statistical analysis was performed using SPSS software based on the tumor volume and the tumor weight at the end of the experiment. The comparison between two groups was analyzed by t-test, and the comparison between three or more groups was analyzed by one-way ANOVA.

Cc1sc2c(c1C)C(c1ccc(Cl)cc1)=N[C@@H](CC(=O)Nc1ccc3c(c1)COC3=O)c1nnc(C)n1-2 [Compound of formula (I)]
pIC50 [1]: < 4.40
bioavailability [2]: 37.5%
tolerance [3]: good tolerance
